Structures can show the parent of a compound that is named as a salt. Where two headings read alike, the source gives them in different places.
Molecular target: T1, human P2X4 receptors (Homo sapiens, UniProt Q99571)
T1 sequence (Q99571 1-388): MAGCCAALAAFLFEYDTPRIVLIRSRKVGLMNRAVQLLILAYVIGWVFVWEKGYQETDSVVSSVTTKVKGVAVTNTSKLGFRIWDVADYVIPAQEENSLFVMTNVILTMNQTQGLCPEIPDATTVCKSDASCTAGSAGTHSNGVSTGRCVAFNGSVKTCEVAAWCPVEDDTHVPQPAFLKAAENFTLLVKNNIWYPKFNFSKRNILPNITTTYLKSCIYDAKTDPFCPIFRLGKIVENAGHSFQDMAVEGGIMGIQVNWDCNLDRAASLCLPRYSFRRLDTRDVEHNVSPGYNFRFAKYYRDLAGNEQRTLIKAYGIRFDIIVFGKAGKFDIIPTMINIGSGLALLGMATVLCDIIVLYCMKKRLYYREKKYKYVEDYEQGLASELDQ
Assay: P2X4 receptor antagonism, intracellular calcium influx assay (Fura-2 AM, ATP-induced)
Type: cell-based
Details: for IC50: 1321N1 cells stably expressing human P2X4 receptors, compound added 15 min before ATP, read-out: Inhibition activities (IC50 μM)
Procedure: 1321N1 cells stably expressing human P2X4 receptors were adopted for calcium influx assay. P2X4/1321N1 cells were plated in 96-well assay plate and cultured for 24 hours in an atmosphere of 5% CO2 at 37° C. Fura-2 AM calcium indicator dissolved in an extracellular solution for calcium imaging was loaded onto cells for 45 minutes at room temperature. The fluorescence was detected by FLUOstar OPTIMA micro plate reader (BMG labtech). The cells were alternatively illuminated with two excitations wavelengths (340 nm and 380 nm) via xenon lamp and the emitted fluorescence was measured at 510 nm. The fluorescence changes after the treatment of 1 μM ATP were monitored and determined the fluorescence ratio (F340/F380) as the index of intracellular calcium change. Tested compounds were treated to cells 15 min before the addition of ATP and the inhibition activities of compounds were calculated by comparing the Ca^2+ response with control in the absence of tested compound.
P2X4 receptor antagonism of the compound of the present invention was measured as described below.
1321N1 cells stably expressing human P2X4 receptors were plated in 96-well assay plate and cultured for 24 hours at 37° C. in an atmosphere of 5% CO2 for intracellular calcium assay. Fura-2 AM calcium fluorescent indicator was used for the intracellular calcium assay. Fura-2 AM was dissolved in an assay buffer, and the solution was loaded onto cells. The obtained plate was used for fluorescent assay.
Test compounds were treated to cells for 15 minutes before the addition of ATP, and the response to intracellular calcium influx induced by addition of ATP was monitored by a micro plate reader. The fluorescence ratio of excitations wavelengths of 340 nm and 380 nm was used as the index of intracellular calcium change. The inhibition activities of the test compounds were calculated by comparison with the absence of the test compound (control).

[1] = Table 19, fluorescence ratio F340/F380 vs control
[2] = Table 20, same manner as in Example 19

Structure (SMILES) | IC50 [2] | also measured
O=C1CC(=O)N(c2cccc(-c3nnn[nH]3)c2)c2ccc3c(c2N1)CCCC3.[Na] [Example 2, 5-[3-(1H-Tetrazol-5-yl)phenyl]-8,9,10,11-tetrahydronaphtho[2,1-b][1,4]diazepine-2,4(3H,5H)-dione sodium salt] |  | P2X4 receptor antagonism (in words) (summary statement on Tables 19 and 20): excellent P2X4 receptor antagonism
O=C1CC(=O)N(c2cccc(O)c2)c2ccc3c(c2N1)CCCC3 [Example 3, 5-(3-Hydroxyphenyl)-8,9,10,11-tetrahydronaphtho[2,1-b][1,4]diazepine-2,4(3H,5H)-dione] |  | IC50 [1]: 3.9 µM
O=C1CC(=O)N(c2cccc(-c3nnn[nH]3)c2)c2ccc3c(c2N1)CCC3 [Example 5, 5-[3-(1H-Tetrazol-5-yl)phenyl]-5,8,9,10-tetrahydroindeno[5,4-b][1,4]diazepine-2,4(1H,3H)-dione sodium salt] |  | IC50 [1]: 0.97 µM
Nc1cccc(N2C(=O)CC(=O)Nc3c2ccc2c3CCCC2)c1 [Example 8, 5-(3-Aminophenyl)-1,5,8,9,10,11-hexahydronaphtho[1,2-b][1,4]diazepine-2,4-dione hydrochloride] | 4 µM | 
Nc1ccc(N2C(=O)CC(=O)Nc3c2ccc2c3CCCC2)cc1 [Example 10, 5-(4-Aminophenyl)-1,5,8,9,10,11-hexahydronaphtho[1,2-b][1,4]diazepine-2,4-dione] | 6.1 µM | 
CNc1ccc(N2C(=O)CC(=O)Nc3c2ccc2c3CCCC2)cc1 [Example 11, 5-(4-Methylaminophenyl)-1,5,8,9,10,11-hexahydronaphtho[1,2-b][1,4]diazepine-2,4-dione hydrochloride] | 3.3 µM | 
COc1ccc(N2C(=O)CC(=O)Nc3c2ccc2c3CCCC2)cc1 [Example 13, 5-(4-Methoxyphenyl)-1,5,8,9,10,11-hexahydronaphtho[1,2-b][1,4]diazepine-2,4-dione] | 6.9 µM | 
O=C1CC(=O)N(c2ccc(O)cc2)c2ccc3c(c2N1)CCCC3 [Example 14, 5-(4-Hydroxyphenyl)-1,5,8,9,10,11-hexahydronaphtho[1,2-b][1,4]diazepine-2,4-dione] | 3.8 µM | 

— patent US8962613B2, “P2X4 receptor antagonist” (Nippon Chemiphar Co., Ltd., priority 2010, dated 2015)
